Test results as given in ChEMBL document CHEMBL3046138, “5-Aryl-1,3,4-oxadiazole-2-thiols as a New Series of trans-Cinnamate 4-Hydroxylase Inhibitors” (J Pestic Sci, 2004).

Molecular target: T1, Trans-cinnamate 4-monooxygenase (Populus kitakamiensis, UniProt Q43054)
T1 sequence (Q43054 whole entry): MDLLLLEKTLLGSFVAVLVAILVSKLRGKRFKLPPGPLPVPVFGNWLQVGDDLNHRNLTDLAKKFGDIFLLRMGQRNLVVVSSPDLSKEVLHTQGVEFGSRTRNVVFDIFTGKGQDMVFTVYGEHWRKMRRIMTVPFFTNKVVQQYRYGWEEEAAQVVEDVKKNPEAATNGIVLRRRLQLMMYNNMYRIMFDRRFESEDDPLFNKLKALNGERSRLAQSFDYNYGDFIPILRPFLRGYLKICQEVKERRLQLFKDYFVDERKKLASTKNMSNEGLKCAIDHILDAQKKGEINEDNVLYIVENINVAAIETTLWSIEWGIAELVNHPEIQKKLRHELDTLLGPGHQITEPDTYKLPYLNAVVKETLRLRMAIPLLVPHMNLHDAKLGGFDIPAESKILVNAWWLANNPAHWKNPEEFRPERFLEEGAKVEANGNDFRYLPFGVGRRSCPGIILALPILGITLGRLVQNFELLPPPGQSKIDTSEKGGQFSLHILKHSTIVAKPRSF
Assay: Inhibition of Populus sieboldii x Populus grandidentata trans-cinnamate 4-hydroxylase expressed in Saccharomyces cerevisiae BJ2168 assessed as inhibition of hydroxylation of cinnamic acid after 60 min

| SMILES | IC50 |
| --- | --- |
| Sc1nnc(-c2cc(Cl)cc(Cl)c2)o1 | > 100000 nM |
| S=c1[nH]nc(-c2ccc(Cl)cc2)o1 | 23000 nM |
| FC(F)(F)c1cccc(-c2nnc(S)o2)c1 | > 100000 nM |
| Cc1ccc(-c2nnc(S)o2)cc1 | 50000 nM |
| O=c1[nH]nc(-c2ccccc2)o1 | 6700 nM |
| O=C(O)c1ccc2c(c1)OCO2 [PIPERONYLIC ACID] | > 100000 nM |
| S=c1[nH]nc(-c2cccc3ccccc23)o1 | > 100000 nM |
| CSc1nnc(-c2ccccc2)o1 | > 100000 nM |
| S=c1[nH]nc(C2CCCCC2)o1 | > 100000 nM |
| Sc1nnc(-c2ccncc2)o1 | 15000 nM |
| Sc1nnc(-c2ccc3ccccc3c2)o1 | > 100000 nM |
| c1ccc(-c2nnco2)cc1 | > 100000 nM |
| Sc1nnc(-c2cccs2)o1 | 6200 nM |
| Sc1nnc(/C=C/c2ccccc2)o1 | > 100000 nM |

Other lines, results leading:

| IC50 | SMILES |
| --- | --- |
| 6100 nM | COc1cccc(-c2nnc(S)o2)c1 |
| 1100 nM | Cc1cccc(-c2nnc(S)o2)c1 |
| 650 nM | Sc1nnc(-c2cccnc2)o1 |
| 580 nM | Sc1nnc(-c2ccccn2)o1 |
| 880 nM | O=C(O)c1c(O)ccc2ccccc12 |
| 420 nM | Sc1nnc(-c2cccc(Br)c2)o1 |
| 500 nM | Cc1ccccc1-c1nnc(S)o1 |
| 210 nM | Sc1nnc(-c2cccc(Cl)c2)o1 |
| 800 nM | S=c1[nH]nc(-c2ccccc2)o1 |
| 190 nM | Fc1ccccc1-c1nnc(S)o1 |
| 680 nM | Sc1nnc(-c2ccccc2Cl)o1 |
| 980 nM | Sc1nnc(-c2ccccc2Br)o1 |
| 130 nM | Fc1cccc(-c2nnc(S)o2)c1 |
| 2000 nM | Sc1nnc(-c2cc(Cl)ccc2Cl)o1 |
| 3300 nM | Fc1ccc(-c2nnc(S)o2)cc1 |
| 5900 nM | Sc1nnc(-c2ccco2)o1 |

Molecular target: T2, Trans-cinnamate 4-monooxygenase (Helianthus tuberosus, UniProt Q04468)
T2 sequence (Q04468 whole entry): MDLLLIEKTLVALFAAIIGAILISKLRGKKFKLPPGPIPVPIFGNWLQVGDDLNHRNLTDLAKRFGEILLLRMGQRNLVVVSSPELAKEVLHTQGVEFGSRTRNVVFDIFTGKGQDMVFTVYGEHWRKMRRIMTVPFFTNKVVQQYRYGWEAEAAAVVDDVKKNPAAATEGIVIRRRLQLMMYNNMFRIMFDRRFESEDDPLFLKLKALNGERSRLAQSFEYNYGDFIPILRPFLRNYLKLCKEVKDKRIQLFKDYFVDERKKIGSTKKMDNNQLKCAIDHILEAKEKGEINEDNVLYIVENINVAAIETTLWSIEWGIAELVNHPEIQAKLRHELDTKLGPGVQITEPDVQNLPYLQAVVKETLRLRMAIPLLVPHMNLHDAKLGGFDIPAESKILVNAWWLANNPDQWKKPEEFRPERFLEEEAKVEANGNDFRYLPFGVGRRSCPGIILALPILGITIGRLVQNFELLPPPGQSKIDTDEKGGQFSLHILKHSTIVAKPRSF
Assay: Inhibition of Helianthus tuberosus CYP73A1

| IC50 | SMILES |
| --- | --- |
| 890 nM | O=C(O)c1c(O)ccc2ccccc12 |

Molecular target: T3, Trans-cinnamate 4-monooxygenase (Populus kitakamiensis) (UniProt Q43054)
T3 sequence (whole entry): T1 sequence (Q43054 whole entry)
Assay: Inhibition of Populus sieboldii x Populus grandidentata CYP73A1 at 100 uM

| SMILES | inhibition |
| --- | --- |
| O=C(O)c1ccc2c(c1)OCO2 [PIPERONYLIC ACID] | 58% |
